The values that follow come from patent publication EP4775582A1, “MACROCYCLIC COMPOUND AND ANTIBODY-DRUG CONJUGATE THEREOF” (Genfleet Therapeutics (Shanghai) Inc., priority 2023, dated 2025).

Holding throughout (format): cell-based, human
One test concerns H441 p-ERK. The experiment in a line: Cell p-ERK assay (HTRF), NCI-H441 cells. Particulars: NCI-H441 cells (KRAS G12V), 3 h incubation. The method, then: (§1) The cells were digested with trypsin (containing EDTA), collected in their corresponding complete media, and counted. The density of the cell suspensions was adjusted with their corresponding complete media, and 10000 AsPC-1 cells or 20000 NCI-H441 cells per well were seeded into a 96-well cell culture plate, with the volume of the medium in each well being 80 µL. The cell culture plate was incubated in an incubator at 37 °C with 5% CO2 overnight. […] On the day after cell seeding, 20 µL of the 5× compound stock solution was added to each cell culture well. […] In addition to the compound-treated wells described above, cell-containing DMSO control wells were also set. A complete medium containing 0.5% DMSO was added at 20 µL/well. After the mixture was well mixed, the culture plate was incubated in the incubator at 37 °C with 5% CO2 for another 3 h. The medium was then removed from the culture wells, and 50 µL of cell lysis buffer (from Advance ERK phospho-T202/Y204 kit) was added to each well. The mixture was well mixed and incubated for 30 min. Then, 16 µL of the mixture was transferred to a white-bottomed, opaque 96-well assay plate, and separately, 16 µL of cell lysis buffer was added to additional wells (serving as blank wells) in the assay plate. After the transfer was completed, 4 µL of p-ERK HTRF antibody mixture (from Advance ERK phospho-T202/Y204 kit) was added to each well of the assay plate, followed by a 4-hour incubation. […] Using an XLfit software, the IR (%) values were plotted against the logarithm of the compound concentrations, and the dose-response curves were fitted using the four-parameter method to calculate the IC50 values.
A general note: Time-resolved FRET reads energy transfer from a long-lived donor to a nearby acceptor.

A further test deals with AsPC-1 p-ERK. The experiment in a line: Cell p-ERK assay (HTRF), AsPC-1 cells. On the procedure: as §1
The test system of a further test is AsPC-1 cells. The experiment in a line: 3D cell proliferation assay (CellTiter Glo-3D), AsPC-1. On the procedure:
(§2) The cells were digested with trypsin (containing EDTA), collected in their respective low-serum complete media containing 2% FBS (for MIA Paca-2 cell culture: DMEM + 2% FBS + 0.5% Horse serum + 1% PS), and counted. After the cell density was adjusted as required, 200 MIA PaCa-2 cells, 800 AsPC-1 cells, 800 NCI-H441 cells, or 400 NCI-H1975 cells per well were seeded into a 384-well cell culture plate, with the volume of the medium in each well being 45 µL. The cell culture plate was incubated in an incubator at 37 °C with 5% CO2 overnight. […] On the day after cell seeding, 5 µL of the 10× compound stock solution was added to each cell culture well. […] In addition to the compound-treated wells described above, cell-containing DMSO control wells (with 5 µL of the complete medium containing 1% DMSO added to each well) and cell-free medium control wells (containing 50 µL of the complete medium with 2% FBS) were also set. The culture plate was incubated in an incubator at 37 °C with 5% CO2 for another 5 days, and then 30 µL of CellTiter-Glo working solution was added to each well. The mixture was well mixed, incubated for 30 min, left to stand at room temperature for 30 min, and then transferred to a white-bottomed, opaque 384-well assay plate at 40 µL/well. […] Using an XLfit software, the IR (%) values were plotted against the logarithm of the compound concentrations, and the dose-response curves were fitted using the four-parameter method to calculate the IC50 values.

In the next test the test system is NCI-H441 cells. Description: 3D cell proliferation assay (CellTiter Glo-3D), NCI-H441. Particulars: NCI-H441 cells (KRAS G12V), 2% FBS, 5 days, read-out: H441 AP IC50. The method, then: as §2
(Cellular ATP, detected with luciferase, serves as a proxy for viable cell number.)

Setting [1] is: Homo sapiens, ASPC1, 3 h, read-out: AsPC-1 p-ERK IC50(nM).
[2] abbreviates: Homo sapiens, ASPC1, 120 h, read-out: AsPC-1 AP IC50(nM).

Like-named read-outs stand apart in the source and are kept apart here.

Usually IC50 stands for the concentration that inhibits the measured activity by half. As for `CCn1c(-c2cc(C#CCN3CCC(N)(C#N)CC3)cnc2[C@H](C)OC)c2c3cc(ccc31)-c1csc(n1)C[C@H](NC(=O)[C@H]1[C@@H]3COC[C@@H]31)C(=O)N1CCC[C@H](N1)C(=O)OCC(C)(C)C2` (atropisomer, axis not shown; (Ra)) [Compound Z51, (1R,5S,6r)-N-((6^3S,4S,Z)-(Ra)-1^2-(5-(3-(4-amino-4-cyanopiperidin-1-yl)prop-1-yn-1-yl)-2-((S)-1-methoxyethyl)-pyridin-3-yl)-1^1-ethyl-10,10-dimethyl-5,7-dioxo-6^1,6^2,6^3,6^4,6^5,6^6-hexahydro-11H-8-oxa-2(4,2)-thiazola-1(5,3)-indola-6(1,3)-pyridazinacycloundecaphane-4-yl)-3-oxabicyclo[3.1.0]hexane-6-carboxamide], the half-maximal inhibitory concentration (IC50) worked out at 0.18 nM with H441 p-ERK (Homo sapiens); 0.27 nM in the test with AsPC-1 p-ERK (setting [1]); 0.42 nM in the test on AsPC-1 cells (setting [2]); 0.28 nM in the test with NCI-H441 cells (Homo sapiens, 120 h).
On the same counts, the results for `CO[C@@H](C)c1ncc(C#CCN2CCN(C(=O)CN)CC2)cc1-c1c2c3cc(ccc3n1C(C)C)-c1csc(n1)C[C@H](NC(=O)[C@H]1[C@@H]3COC[C@@H]31)C(=O)N1CCC[C@H](N1)C(=O)OCC(C)(C)C2` (atropisomer, axis not shown; (Ra)) [Compound Z84, (1R,5S,6r)-N-((6^3S,4S,Z)-(Ra)-1^2-(5-(3-(4-glycylpiperazin-1-yl)prop-1-yn-1-yl)-2-((S)-1-methoxyethyl)pyridin-3-yl)-1^1-isopropyl-10,10-dimethyl-5,7-dioxo-6^1,6^2,6^3,6^4,6^5,6^6-hexahydro-1^1H-8-oxa-2(4,2)-thiazola-1(5,3)-indola-6(1,3)-pyridazinacycloundecaphane-4-yl)-3-oxabicyclo[3.1.0]hexane-6-carboxamide] are 1.47 nM, 1.56 nM, 2.7 nM and 3.02 nM.
Consider “(6^3S,4S,Z)-(Sa)-1^2-(5-(3-(1,4-oxazepan-4-yl)prop-1-yn-1-yl)-2-((S)-1-methoxyethyl)pyridin-3-yl)-1^1-ethyl-10,10-dimethyl-4-((5-ethyl-5-methyl-4,5-dihydroisoxazol-3-yl)amino)-6^1,6^2,6^3,6^4,6^5,6^6-hexahydro-1^1H-8-oxa-2(4,2)-thiazola-1(5,3)-indola-6(1,3)-pyridazinacycloundecaphane-5,7-dione [Compound Z173-2]”, for which the IC50 in the test with H441 p-ERK was determined as 0.81 nM; in the test on AsPC-1 p-ERK (AsPC-1 cells (KRAS G12D), 3 h incubation, read-out: AsPC-1 p-ERK IC50) it was 0.86 nM; with AsPC-1 cells (AsPC-1 cells (KRAS G12D), 3D, 2% FBS, 5 days, read-out: AsPC-1 AP IC50), 1.61 nM; in the test with NCI-H441 cells it was 1.82 nM.
As for `CCn1c(-c2cc(C#CCN3CCS(=O)(=O)CC3)cnc2[C@H](C)OC)c2c3cc(ccc31)-c1csc(n1)C[C@H](NC(=O)[C@H]1[C@H](C)[C@@H]1CO)C(=O)N1CCC[C@H](N1)C(=O)OCC(C)(C)C2` (atropisomer, axis not shown; (Ra)) [Compound Z7-2, (1S,2S,3R)-N-((6^3S,4S,Z)-(Ra)-1^2-(5-(3-(1,1-dioxidothiomorpholino)prop-1-yn-1-yl)-2-((S)-1-methoxyethyl)pyridin-3-yl)-1^1-ethyl-10,10-dimethyl-5,7-dioxo-6^1,6^2,6^3,6^4,6^5,6^6-hexahydro-1^1H-8-oxa-2(4,2)-thiazola-1(5,3)-indola-6(1,3)-pyridazinacycloundecaphane-4-yl)-2-(hydroxymethyl)-3-methylcyclopropane-1-carboxamide], the IC50 with H441 p-ERK (Homo sapiens) was 0.45 nM; in the test on AsPC-1 p-ERK (setting [1]) it was 0.42 nM; in the test with AsPC-1 cells (setting [2]), 0.56 nM; with NCI-H441 cells (Homo sapiens, 120 h), 0.35 nM.
With `CCn1c(-c2cc(C#CCN3CCC(C(=O)NCCO)CC3)cnc2[C@H](C)OC)c2c3cc(ccc31)-c1csc(n1)C[C@H](NC(=O)[C@H]1[C@H](C)[C@@H]1C)C(=O)N1CCC[C@H](N1)C(=O)OCC(C)(C)C2` (atropisomer, axis not shown; (Ra)) [Compound Z12], the half-maximal inhibitory concentration (IC50) in the test with H441 p-ERK (Homo sapiens) was found to be 0.15 nM; with AsPC-1 p-ERK (Homo sapiens, ASPC1, AsPC-1 cells (KRAS G12D), 3 h incubation, read-out: AsPC-1 p-ERK IC50) it was 0.36 nM; in the test with AsPC-1 cells (Homo sapiens, ASPC1, 120 h, AsPC-1 cells (KRAS G12D), 3D, 2% FBS, 5 days, read-out: AsPC-1 AP IC50), 0.44 nM; with NCI-H441 cells (Homo sapiens, 120 h) it was 0.21 nM.
As for `CCn1c(-c2cc(C#CCN3CCC(C#N)(CO)CC3)cnc2[C@H](C)OC)c2c3cc(ccc31)-c1csc(n1)C[C@H](NC(=O)[C@H]1[C@@H]3COC[C@@H]31)C(=O)N1CCC[C@H](N1)C(=O)OCC(C)(C)C2` (atropisomer, axis not shown; (Ra)) [Compound Z30, (1R,5S,6r)-N-((6^3S,4S,Z)-(Ra)-1^2-(5-(3-(4-cyano-4-(hydroxymethyl)piperidin-1-yl)prop-1-yn-1-yl)-2-((S)-1-methoxyethyl)pyridin-3-yl)-11-ethyl-10,10-dimethyl-5,7-dioxo-6^1,6^2,6^3,6^4,6^5,6^6-hexahydro-1^1H-8-oxa-2(4,2)-thiazola-1(5,3)-indola-6(1,3)-pyridazinacycloundecaphane-4-yl)-3-oxabicyclo[3.1.0]hexane-6-carboxamide], the IC50 amounted to 0.15 nM in the test with H441 p-ERK (Homo sapiens); 0.07 nM in the test on AsPC-1 p-ERK (setting [1]); 0.07 nM in the test on AsPC-1 cells (setting [2]); 0.11 nM with NCI-H441 cells (Homo sapiens, 120 h).
As for `CCn1c(-c2cc(C#CCN3CCC(C#N)(CO)CC3)cnc2[C@H](C)OC)c2c3cc(ccc31)-c1csc(n1)C[C@H](NC(=O)[C@H]1[C@H](C)[C@@H]1C)C(=O)N1CCC[C@H](N1)C(=O)OCC(C)(C)C2` (atropisomer, axis not shown; (Ra)) [Compound Z23, (1r,2R,3S)-N-((6^3S,4S,Z)-(Ra)-1^2-(5-(3-(4-cyano-4-(hydroxymethyl)piperidin-1-yl)prop-1-yn-1-yl)-2-((S)-1-methoxyethyl)pyridin-3-yl)-1^1-ethyl-10,10-dimethyl-5,7-dioxo-6^1,6^2,6^3,6^4,6^5,6^6-hexahydro-1^1H-8-oxa-2(4,2)-thiazola-1(5,3)-indola-6(1,3)-pyridazinacycloundecaphane-4-yl)-2,3-dimethylcyclopropane-1-carboxamide], the half-maximal inhibitory concentration (IC50) with H441 p-ERK (Homo sapiens) turned out to be 0.1 nM; in the test with AsPC-1 p-ERK (setting [1]), 0.08 nM; in the test on AsPC-1 cells (setting [2]) it was 0.03 nM; in the test with NCI-H441 cells (Homo sapiens, 120 h), 0.06 nM.
On the same counts, the results for `CCn1c(-c2cc(C#CCN3CCS(=O)(=O)CC3)cnc2[C@H](C)OC)c2c3cc(ccc31)-c1csc(n1)C[C@H](NC(=O)[C@@H]1[C@@H](C)[C@H]1CO)C(=O)N1CCC[C@H](N1)C(=O)OCC(C)(C)C2` (atropisomer, axis not shown; (Ra)) [Compound Z7-1, (1R,2R,3S)-N-((6^3S,4S,Z)-(Ra)-1^2-(5-(3-(1,1-dioxidothiomorpholino)prop-1-yn-1-yl)-2-((S)-1-methoxyethyl)pyridin-3-yl)-1^1-ethyl-10,10-dimethyl-5,7-dioxo-6^1,6^2,6^3,6^4,6^5,6^6-hexahydro-1^1H-8-oxa-2(4,2)-thiazola-1(5,3)-indola-6(1,3)-pyridazinacycloundecaphane-4-yl)-2-(hydroxymethyl)-3-methylcyclopropane-1-carboxamide] are 0.5 nM, 0.51 nM, 0.52 nM and 0.32 nM.
